Assay results taken from US20060078598A1, “Animal feed containing an encapsulated ingredient” (CAN Technologies, Inc., priority 2002, published 2006).
Where two headings read alike, the source gives them in different places.

Key:
[1] = deionized water
From the text: Equal levels of each sample (circa 1.0 wt. % of methionine based on total feed weight) were introduced into a feed formula that was placed in a vessel and exposed to deionized water for an hour.

[2] = feed formula with circa 1.0 wt. % sample, contacted with deionized water
From the text: Equal levels of each sample (circa 1.0 wt. % based on total feed weight) were introduced into a feed formula that was placed in a vessel and contacted with deionized water.

percent loss of methionine ([1]; after about 1 minute): about 15 wt. % | percent loss of methionine ([1]; after about 5 minutes): about 22 wt. % | percent loss of methionine ([1]; after about 15 minutes): about 30 wt. % | percent loss of methionine ([1]; after about 60 minutes): about 43 wt. % | LEACHING LOSS AFTER 30 MINUTES [2]: 40%
SMILES: CSCC[C@H](N)C(=O)O [Uncoated methionine, methionine]
